Laboratory results as given in ChEMBL document CHEMBL3870360, “GluN2A-Selective Pyridopyrimidinone Series of NMDAR Positive Allosteric Modulators with an Improved in Vivo Profile” (ACS Med Chem Lett, 2017).
In brackets after ≈: the same amount, converted by molar mass. Each block holds one compound with its values, some of them ahead of it.

Columns and labels:
[1] = target: T1, Glutamate NMDA receptor; GRIN1/GRIN2A (Homo sapiens, UniProt Q05586+Q12879); assay: Positive allosteric modulation of GluN1/GluN2A receptor (unknown origin) expressed in CHO cells assessed as increase in glutamate-induced calcium flux measured at time interval of 5 mins in presence of saturating glycine by calcium dye-based fluorescence assay; assay type: cell-based
[2] = target: T1, Glutamate NMDA receptor; GRIN1/GRIN2A; assay: Positive allosteric modulation of GluN1/GluN2A receptor (unknown origin) expressed in CHO cells assessed as increase in glutamate-induced calcium flux at 125 uM measured at time interval of 5 mins in presence of saturating glycine by calcium dye-based fluorescence assay relative to glutamate; assay type: cell-based
Glutamate receptor 2 [3] = target: T2, Glutamate receptor 2 (Homo sapiens, UniProt P42262); assay: Positive allosteric modulation of human GluA2 receptor flip isoform assessed as increase in glutamate-induced calcium flux at 125 uM measured at time interval of 5 mins in presence of saturating glycine by calcium dye-based fluorescence assay relative to glutamate; assay type: single protein
T2 sequence (P42262 whole entry, canonical isoform): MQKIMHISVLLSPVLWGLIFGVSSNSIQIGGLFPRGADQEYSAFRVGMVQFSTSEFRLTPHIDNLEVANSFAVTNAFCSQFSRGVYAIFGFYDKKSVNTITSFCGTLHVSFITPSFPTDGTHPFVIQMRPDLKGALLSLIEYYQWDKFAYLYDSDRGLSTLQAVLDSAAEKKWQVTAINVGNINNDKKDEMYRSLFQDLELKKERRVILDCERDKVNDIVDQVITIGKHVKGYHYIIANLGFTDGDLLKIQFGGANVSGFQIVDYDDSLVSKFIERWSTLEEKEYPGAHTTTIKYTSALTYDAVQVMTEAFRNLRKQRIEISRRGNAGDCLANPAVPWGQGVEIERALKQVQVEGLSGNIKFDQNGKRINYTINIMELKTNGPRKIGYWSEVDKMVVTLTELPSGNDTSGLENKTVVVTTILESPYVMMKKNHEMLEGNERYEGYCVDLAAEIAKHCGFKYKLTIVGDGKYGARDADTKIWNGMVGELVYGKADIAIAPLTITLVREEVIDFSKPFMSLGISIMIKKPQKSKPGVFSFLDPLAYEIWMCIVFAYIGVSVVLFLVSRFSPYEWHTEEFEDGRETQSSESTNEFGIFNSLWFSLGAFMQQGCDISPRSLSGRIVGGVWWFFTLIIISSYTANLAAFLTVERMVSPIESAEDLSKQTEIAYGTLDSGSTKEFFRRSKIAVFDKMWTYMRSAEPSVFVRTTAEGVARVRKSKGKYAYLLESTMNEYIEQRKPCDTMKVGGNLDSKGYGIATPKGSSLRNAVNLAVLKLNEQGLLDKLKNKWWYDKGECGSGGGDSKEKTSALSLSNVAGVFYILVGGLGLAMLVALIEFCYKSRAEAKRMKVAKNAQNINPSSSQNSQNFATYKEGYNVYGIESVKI

Glutamate receptor 2 [4] = target: T2, Glutamate receptor 2; assay: Positive allosteric modulation of human GluA2 receptor flop isoform assessed as increase in glutamate-induced calcium flux at 125 uM measured at time interval of 5 mins in presence of saturating glycine by calcium dye-based fluorescence assay relative to glutamate; assay type: Functional, single protein
Glutamate receptor 2 [5] = target: T2, Glutamate receptor 2; assay: Positive allosteric modulation of human GluA2 receptor flip isoform assessed as increase in glutamate-induced calcium flux measured at time interval of 5 mins in presence of saturating glycine by calcium dye-based fluorescence assay; assay type: Functional, single protein
Glutamate receptor 2 [6] = target: T2, Glutamate receptor 2; assay: Positive allosteric modulation of human GluA2 receptor flop isoform assessed as increase in glutamate-induced calcium flux measured at time interval of 5 mins in presence of saturating glycine by calcium dye-based fluorescence assay; assay type: Functional, single protein
MDR1 (human) = assay: Efflux ratio of permeability from basolateral to apical over apical to basolateral side in MDCK cells expressing human MDR1; assay type: ADME, cell-based, Canis lupus familiaris; settings: dog
[7] = Unbound clearance in mouse blood at 0.5 mg/kg, iv; assay type: ADME, organism-based; settings: in vivo
[8] = Unbound AUClast in mouse at 5 mg/kg, po; assay type: ADME, organism-based; settings: in vivo
[9] = target: Ionotropic glutamate receptor NMDA 1/2C (Homo sapiens, UniProt Q05586+Q14957); assay: Positive allosteric modulation of GluN1/GluN2C receptor (unknown origin) assessed as increase in glutamate-induced calcium flux measured at time interval of 5 mins in presence of saturating glycine by calcium dye-based fluorescence assay
Sequence of Ionotropic glutamate receptor NMDA 1/2C (Q14957 whole entry, other chains not shown): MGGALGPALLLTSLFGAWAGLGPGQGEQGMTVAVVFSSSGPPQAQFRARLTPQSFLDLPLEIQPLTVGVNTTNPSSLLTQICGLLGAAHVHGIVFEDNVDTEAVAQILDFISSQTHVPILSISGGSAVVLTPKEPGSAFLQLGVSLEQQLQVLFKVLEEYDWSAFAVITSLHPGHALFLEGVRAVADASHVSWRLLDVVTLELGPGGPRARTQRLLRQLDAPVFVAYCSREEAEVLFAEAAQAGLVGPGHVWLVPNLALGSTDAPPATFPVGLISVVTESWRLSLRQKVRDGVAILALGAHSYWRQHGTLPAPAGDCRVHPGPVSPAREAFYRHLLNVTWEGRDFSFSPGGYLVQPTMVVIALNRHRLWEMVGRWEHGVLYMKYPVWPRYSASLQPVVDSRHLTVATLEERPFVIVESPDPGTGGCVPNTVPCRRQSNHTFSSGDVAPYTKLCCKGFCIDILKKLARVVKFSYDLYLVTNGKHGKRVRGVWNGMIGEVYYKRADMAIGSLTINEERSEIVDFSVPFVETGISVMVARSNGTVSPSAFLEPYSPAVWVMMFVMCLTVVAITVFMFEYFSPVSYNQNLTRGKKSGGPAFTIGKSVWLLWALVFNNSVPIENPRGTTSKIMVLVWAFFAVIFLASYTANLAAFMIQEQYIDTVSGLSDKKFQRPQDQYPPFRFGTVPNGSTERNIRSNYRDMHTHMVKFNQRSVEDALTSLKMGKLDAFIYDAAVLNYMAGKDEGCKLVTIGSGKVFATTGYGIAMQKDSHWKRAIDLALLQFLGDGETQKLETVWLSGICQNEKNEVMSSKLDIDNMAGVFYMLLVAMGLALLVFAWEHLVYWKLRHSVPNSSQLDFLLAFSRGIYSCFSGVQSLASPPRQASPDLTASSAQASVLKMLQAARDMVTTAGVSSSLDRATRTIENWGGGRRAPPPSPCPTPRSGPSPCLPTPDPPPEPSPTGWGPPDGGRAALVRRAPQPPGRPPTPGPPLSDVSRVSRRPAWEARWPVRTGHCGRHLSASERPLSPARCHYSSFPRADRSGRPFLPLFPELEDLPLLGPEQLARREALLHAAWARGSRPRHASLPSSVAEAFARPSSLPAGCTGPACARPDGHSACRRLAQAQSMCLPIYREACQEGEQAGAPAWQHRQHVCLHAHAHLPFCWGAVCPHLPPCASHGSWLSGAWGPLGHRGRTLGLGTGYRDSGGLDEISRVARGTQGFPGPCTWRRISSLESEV

[10] = Selectivity ratio of EC50 for GluN1/GluN2B receptor (unknown origin) expressed in HEK293 cells to EC50 for GluN1/GluN2A receptor (unknown origin) expressed in CHO cells; assay type: cell-based; settings: human
[11] = Ratio of fCmax in mouse at 5 mg/kg, po to EC50 for GluN2A receptor (unknown origin) expressed in CHO cells co-expressing GluN1 receptor
[12] = target: Ionotropic glutamate receptor NMDA 1/2D (Homo sapiens, UniProt O15399+Q05586); assay: Positive allosteric modulation of GluN1/GluN2D receptor (unknown origin) assessed as increase in glutamate-induced calcium flux measured at time interval of 5 mins in presence of saturating glycine by calcium dye-based fluorescence assay
Sequence of Ionotropic glutamate receptor NMDA 1/2D (O15399 whole entry, other chains not shown): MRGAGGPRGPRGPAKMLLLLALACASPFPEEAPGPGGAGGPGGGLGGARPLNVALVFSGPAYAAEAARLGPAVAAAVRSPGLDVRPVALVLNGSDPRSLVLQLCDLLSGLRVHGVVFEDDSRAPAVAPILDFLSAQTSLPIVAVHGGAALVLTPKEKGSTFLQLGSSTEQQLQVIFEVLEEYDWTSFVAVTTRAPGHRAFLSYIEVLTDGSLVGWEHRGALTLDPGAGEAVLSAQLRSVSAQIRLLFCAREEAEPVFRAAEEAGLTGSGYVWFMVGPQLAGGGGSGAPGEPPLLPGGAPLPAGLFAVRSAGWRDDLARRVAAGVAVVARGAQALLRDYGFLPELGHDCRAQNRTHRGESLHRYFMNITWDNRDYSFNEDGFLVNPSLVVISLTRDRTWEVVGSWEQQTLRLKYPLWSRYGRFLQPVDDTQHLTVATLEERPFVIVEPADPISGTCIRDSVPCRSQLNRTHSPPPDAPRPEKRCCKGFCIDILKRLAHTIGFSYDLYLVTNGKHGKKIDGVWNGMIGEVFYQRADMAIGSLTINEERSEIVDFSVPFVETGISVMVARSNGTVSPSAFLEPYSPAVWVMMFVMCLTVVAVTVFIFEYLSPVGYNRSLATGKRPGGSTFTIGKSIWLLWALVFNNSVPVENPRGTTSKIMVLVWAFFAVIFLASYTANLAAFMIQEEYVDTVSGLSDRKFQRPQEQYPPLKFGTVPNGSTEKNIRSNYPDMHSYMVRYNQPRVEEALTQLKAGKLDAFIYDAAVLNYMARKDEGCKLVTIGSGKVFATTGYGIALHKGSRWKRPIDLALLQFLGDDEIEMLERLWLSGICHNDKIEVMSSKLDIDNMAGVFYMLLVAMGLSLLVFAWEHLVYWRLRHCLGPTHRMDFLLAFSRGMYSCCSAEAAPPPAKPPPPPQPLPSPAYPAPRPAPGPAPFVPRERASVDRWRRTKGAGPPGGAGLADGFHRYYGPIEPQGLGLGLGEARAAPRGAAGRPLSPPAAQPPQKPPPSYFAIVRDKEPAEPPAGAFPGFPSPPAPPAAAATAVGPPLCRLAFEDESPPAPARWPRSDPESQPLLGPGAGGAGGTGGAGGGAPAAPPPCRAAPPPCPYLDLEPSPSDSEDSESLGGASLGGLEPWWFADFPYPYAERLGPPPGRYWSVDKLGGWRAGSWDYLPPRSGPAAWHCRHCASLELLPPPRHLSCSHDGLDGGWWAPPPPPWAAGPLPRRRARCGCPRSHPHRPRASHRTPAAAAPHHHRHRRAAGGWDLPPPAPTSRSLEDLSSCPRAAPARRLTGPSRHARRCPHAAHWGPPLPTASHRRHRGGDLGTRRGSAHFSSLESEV

[13] = Kinetic solubility of the compound; assay type: physicochemical; settings: read-out: Kinetic_solubility
[14] = target: Glutamate NMDA receptor; GRIN1/GRIN2B (Homo sapiens, UniProt Q05586+Q13224); assay: Positive allosteric modulation of GluN1/GluN2B receptor (unknown origin) expressed in HEK293 cells assessed as increase in glutamate-induced calcium flux at 125 uM measured at time interval of 5 mins in presence of saturating glycine by calcium dye-based fluorescence assay relative to glutamate; assay type: ADME, cell-based
Sequence of Glutamate NMDA receptor; GRIN1/GRIN2B (Q13224 whole entry, other chains not shown): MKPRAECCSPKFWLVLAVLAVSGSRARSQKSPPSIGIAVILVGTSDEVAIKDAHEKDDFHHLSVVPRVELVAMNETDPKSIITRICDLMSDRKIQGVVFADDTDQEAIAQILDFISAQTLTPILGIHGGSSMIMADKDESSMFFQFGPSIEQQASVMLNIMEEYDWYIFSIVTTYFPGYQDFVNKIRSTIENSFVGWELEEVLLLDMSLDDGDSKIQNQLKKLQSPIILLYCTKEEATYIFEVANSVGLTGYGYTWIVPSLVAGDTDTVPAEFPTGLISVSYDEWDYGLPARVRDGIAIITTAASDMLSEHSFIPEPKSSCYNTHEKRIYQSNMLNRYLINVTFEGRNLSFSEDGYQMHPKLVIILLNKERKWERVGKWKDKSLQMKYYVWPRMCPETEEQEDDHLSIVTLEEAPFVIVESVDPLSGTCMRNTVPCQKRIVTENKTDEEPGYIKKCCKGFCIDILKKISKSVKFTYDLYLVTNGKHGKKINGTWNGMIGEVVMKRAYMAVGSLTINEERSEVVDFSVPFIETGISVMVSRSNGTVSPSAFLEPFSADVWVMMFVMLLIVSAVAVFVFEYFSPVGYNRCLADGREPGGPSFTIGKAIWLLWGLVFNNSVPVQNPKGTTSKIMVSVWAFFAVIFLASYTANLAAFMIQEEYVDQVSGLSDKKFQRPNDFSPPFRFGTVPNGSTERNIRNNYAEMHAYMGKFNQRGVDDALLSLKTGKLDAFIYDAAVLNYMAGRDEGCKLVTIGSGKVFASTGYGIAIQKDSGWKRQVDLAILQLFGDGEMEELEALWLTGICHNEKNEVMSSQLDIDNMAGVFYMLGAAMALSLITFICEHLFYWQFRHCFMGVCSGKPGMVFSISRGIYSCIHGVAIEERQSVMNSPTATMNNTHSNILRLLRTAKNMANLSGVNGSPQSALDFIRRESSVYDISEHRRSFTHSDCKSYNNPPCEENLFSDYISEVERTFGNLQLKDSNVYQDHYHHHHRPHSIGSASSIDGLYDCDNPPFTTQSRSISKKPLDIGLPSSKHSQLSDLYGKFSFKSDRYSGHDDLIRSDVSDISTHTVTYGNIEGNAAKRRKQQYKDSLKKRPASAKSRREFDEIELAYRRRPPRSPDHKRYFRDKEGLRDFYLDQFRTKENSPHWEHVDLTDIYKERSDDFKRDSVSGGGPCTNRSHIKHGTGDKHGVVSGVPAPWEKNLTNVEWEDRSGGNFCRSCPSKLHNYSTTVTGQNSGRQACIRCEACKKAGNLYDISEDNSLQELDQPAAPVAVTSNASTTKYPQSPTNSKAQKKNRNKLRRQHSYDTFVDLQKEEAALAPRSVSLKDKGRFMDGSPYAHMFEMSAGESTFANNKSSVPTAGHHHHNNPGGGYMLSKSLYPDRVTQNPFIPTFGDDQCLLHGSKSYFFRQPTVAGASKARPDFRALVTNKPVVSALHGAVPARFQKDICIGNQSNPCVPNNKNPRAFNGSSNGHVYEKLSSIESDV

[15] = Ratio of unbound concentration in brain to plasma in mouse at 5 mg/kg, po at 1 hr; assay type: ADME, organism-based; settings: brain and plasma, read-out: K(p,uu,brain)
[16] = Protein binding in human plasma; assay type: ADME, cell-free; settings: read-out: PPB (converted)
[17] = Volume of distribution at steady state in mouse at 0.5 mg/kg, iv; assay type: ADME, organism-based; settings: in vivo, read-out: Vdss
[18] = Selectivity ratio of EC50 for human GluA2 flop isoform receptor to EC50 for GluN1/GluN2A receptor (unknown origin) expressed in CHO cells; assay type: ADME, cell-based
[19] = Activity at AMPA receptor in mouse hippocampal brain slices assessed as electrical stimulation-induced excitatory post synaptic potential at -70 mV holding potential by electrophysiology method; assay type: ADME
[20] = Unbound Cmax in mouse at 5 mg/kg, po; assay type: ADME, organism-based; settings: in vivo
[21] = Clearance in mouse blood at 0.5 mg/kg, iv; assay type: ADME, organism-based
[22] = Lipophilicity, log D of the compound; assay type: physicochemical; settings: octanol/water
[23] = Protein binding in mouse plasma; assay type: ADME, cell-free; settings: read-out: PPB (converted)
[24] = Drug uptake in mouse brain; assay type: ADME, tissue-based; settings: in vivo
[25] = Selectivity ratio of EC50 for human GluA2 flip isoform receptor to EC50 for GluN1/GluN2A receptor (unknown origin) expressed in CHO cells; assay type: ADME, cell-based
[26] = Half life in mouse at 0.5 mg/kg, iv; assay type: ADME, organism-based; settings: in vivo
[27] = Oral bioavailability in mouse at 5 mg/kg; assay type: ADME, organism-based; settings: in vivo
[28] = target: T1, Glutamate NMDA receptor; GRIN1/GRIN2A; assay: Deactivation of GluN1/GluN2A receptor (unknown origin) expressed in CHO cells assessed as time constant for signal decay at 1 uM preincubated followed by glutamate addition in presence of saturating glycine measured after glutamate removal by electrophysiology method; assay type: cell-based

Compound: Cc1ccc2nc(Cn3nc(C(F)(F)F)cc3Cl)cc(=O)n2c1-c1cncnc1
EC50 [1]: 9.8 µM | Emax [2]: 84% | Emax at 125 µM (Glutamate receptor 2 [3]): 5% | Emax at 125 µM (Glutamate receptor 2 [4]): 3%

Compound: Cc1sc2nc(Cn3nc(C(F)(F)F)cc3Cl)cc(=O)n2c1-c1cncnc1
EC50 (Glutamate receptor 2 [5]): 9.6 µM | EC50 [1]: 1.4 µM | Emax [2]: 88% | EC50 (Glutamate receptor 2 [6]): 1.2 µM | Emax at 125 µM (Glutamate receptor 2 [3]): 28% | Emax at 125 µM (Glutamate receptor 2 [4]): 9%

Compound: N#C[C@@H]1C[C@H]1c1cc(C(F)(F)F)cc2nc(Cn3nc(C(F)(F)F)cc3Cl)cc(=O)n12
EC50 (Glutamate receptor 2 [5]): 27 µM | Emax [2]: 142% | EC50 (Glutamate receptor 2 [6]): 16 µM | Emax at 125 µM (Glutamate receptor 2 [3]): 27% | Emax at 125 µM (Glutamate receptor 2 [4]): 77% | efflux ratio (MDR1 (human)): 2.1

Compound: CCNC(=O)c1c(C)sc2nc(Cn3nc(C(F)(F)F)cc3Cl)cc(=O)n12
Emax [2]: 120% | Emax at 125 µM (Glutamate receptor 2 [3]): 8% | Emax at 125 µM (Glutamate receptor 2 [4]): 16%

Compound: N#C[C@@H]1C[C@H]1c1c(Cl)ccc2nc(Cn3nc(C(F)(F)F)cc3Cl)cc(=O)n12
EC50 (Glutamate receptor 2 [5]): 45 µM | CL free [7]: 132 mL/min/kg | fAUClast [8]: 0.53 µM·h | EC50 [9]: 4.7 µM | Ratio EC50 [10]: > 100 | EC50 (Glutamate receptor 2 [6]): 49 µM | Ratio [11]: 1.6 | EC50 [12]: 9.5 µM | solubility kinetic [13]: 43.5 µM (≈ 18.6 µg/mL) | Emax at 125 µM [14]: 96% | Kp uu at 1 h [15]: 0.67 | fraction unbound [16]: 0.056 | Vd [17]: 7 L/kg | Ratio EC50 [18]: > 1000 | EC50 [19]: > 15 µM | fCmax [20]: 0.06 µM | clearance [21]: 10 mL/min/kg | Emax at 125 µM (Glutamate receptor 2 [3]): 61% | logD [22]: 1.8 | fraction unbound [23]: 0.076 | Emax at 125 µM (Glutamate receptor 2 [4]): 67% | Drug uptake [24]: 94.9% | Ratio EC50 [25]: > 1000 | half-life [26]: 8 h | efflux ratio (MDR1 (human)): 1.6 | bioavailability [27]: 37%

Compound: N#C[C@@H]1C[C@H]1c1cccc2nc(Cn3nc(C(F)(F)F)cc3Cl)cc(=O)n12
EC50 (Glutamate receptor 2 [5]): 0.81 µM | EC50 [1]: 0.024 µM | Emax [2]: 148% | EC50 (Glutamate receptor 2 [6]): 0.41 µM | Emax at 125 µM (Glutamate receptor 2 [3]): 90% | Emax at 125 µM (Glutamate receptor 2 [4]): 90%

Compound: Cc1ccc2nc(Cn3nc(C(F)(F)F)cc3Cl)cc(=O)n2c1C1CC1
EC50 (Glutamate receptor 2 [5]): 1.3 µM | EC50 [1]: 0.28 µM | Emax [2]: 107% | EC50 (Glutamate receptor 2 [6]): 2.5 µM | Emax at 125 µM (Glutamate receptor 2 [3]): 7% | Emax at 125 µM (Glutamate receptor 2 [4]): 3%

Compound: COc1ccc2nc(Cn3nc(C(F)(F)F)cc3Cl)cc(=O)n2c1[C@@H]1C[C@H]1C#N
EC50 [1]: 0.08 µM | Emax [2]: 120% | Emax at 125 µM (Glutamate receptor 2 [3]): 28% | Emax at 125 µM (Glutamate receptor 2 [4]): 15% | efflux ratio (MDR1 (human)): 3.2

Compound: CCNC(=O)c1c(C)ccc2nc(Cn3nc(C(F)(F)F)cc3Cl)cc(=O)n12
EC50 [1]: 2.5 µM | Emax [2]: 129% | Emax at 125 µM (Glutamate receptor 2 [3]): 1% | Emax at 125 µM (Glutamate receptor 2 [4]): -1%

Compound: COc1cc([C@@H]2C[C@H]2C#N)n2c(=O)cc(Cn3nc(C(F)(F)F)cc3Cl)nc2c1
EC50 (Glutamate receptor 2 [5]): 6.7 µM | EC50 [1]: 0.13 µM | Emax [2]: 140% | EC50 (Glutamate receptor 2 [6]): 2.2 µM | Emax at 125 µM (Glutamate receptor 2 [3]): 51% | Emax at 125 µM (Glutamate receptor 2 [4]): 67% | efflux ratio (MDR1 (human)): 2.2

Results, then the compound that gave them:

EC50 (Glutamate receptor 2 [5]): 67 µM | EC50 [1]: 0.041 µM | Emax [2]: 137% | EC50 (Glutamate receptor 2 [6]): 31 µM | Emax at 125 µM (Glutamate receptor 2 [3]): 66% | Emax at 125 µM (Glutamate receptor 2 [4]): 63% | efflux ratio (MDR1 (human)): 2
Compound: Cc1ccc2nc(Cn3nc(C(F)(F)F)cc3Cl)cc(=O)n2c1[C@@H]1C[C@H]1C#N

EC50 [1]: 0.27 µM | Emax [2]: 116% | Emax at 125 µM (Glutamate receptor 2 [3]): 51% | Emax at 125 µM (Glutamate receptor 2 [4]): 32%
Compound: Cc1sc2nc(Cn3nc(C(F)(F)F)cc3Cl)cc(=O)n2c1C1CC1

TIME [28]: 0.000584 h | EC50 [19]: 5.7 µM
Compound: N#C[C@@H]1C[C@H]1c1c(C(F)(F)F)sc2nc(Cn3nc(C(F)(F)F)cc3Cl)cc(=O)n12

EC50 (Glutamate receptor 2 [5]): 3.1 µM | EC50 [1]: 0.021 µM | Emax [2]: 151% | EC50 (Glutamate receptor 2 [6]): 0.46 µM | Emax at 125 µM (Glutamate receptor 2 [3]): 67% | Emax at 125 µM (Glutamate receptor 2 [4]): 69% | efflux ratio (MDR1 (human)): 1.5
Compound: N#C[C@@H]1C[C@H]1c1c(F)ccc2nc(Cn3nc(C(F)(F)F)cc3Cl)cc(=O)n12

Emax [2]: 151% | Emax at 125 µM (Glutamate receptor 2 [3]): 91% | Emax at 125 µM (Glutamate receptor 2 [4]): 93%
Compound: Cc1sc2nc(Cn3nc(C(F)(F)F)cc3Cl)cc(=O)n2c1[C@@H]1C[C@H]1C#N

EC50 (Glutamate receptor 2 [5]): 3.1 µM | Emax [2]: 144% | EC50 (Glutamate receptor 2 [6]): 0.21 µM | Emax at 125 µM (Glutamate receptor 2 [3]): 86% | Emax at 125 µM (Glutamate receptor 2 [4]): 83% | efflux ratio (MDR1 (human)): 2.2
Compound: Cc1cc([C@@H]2C[C@H]2C#N)n2c(=O)cc(Cn3nc(C(F)(F)F)cc3Cl)nc2c1
